In PubChem BioAssay (NCI):
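Grown in 96-well plates, cells were treated for 48 hours with each compound at five concentrations. Insufficient inhibition: endpoint recorded as highest concentration tested. At the TGI there is no net growth.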

Key:
Experiment in all cases: NCI tumour cell line growth inhibition, 48 h
NCI-H226 lung = tested on: NCI-H226 lung
786-0 renal = tested on: 786-0 renal
UACC-62 melanoma = tested on: UACC-62 melanoma
SNB-75 CNS = tested on: SNB-75 CNS
RXF 393 renal = tested on: RXF 393 renal
T-47D breast = tested on: T-47D breast
SR leukemia = tested on: SR leukemia
SK-MEL-2 melanoma = tested on: SK-MEL-2 melanoma
EKVX NSCLC = tested on: EKVX NSCLC
NCI/ADR-RES ovarian = tested on: NCI/ADR-RES ovarian
MDA-MB-231 breast = tested on: MDA-MB-231 breast

Compound	TGI (NCI-H226 lung) [µM]	TGI (786-0 renal) [µM]	TGI (UACC-62 melanoma) [µM]	TGI (SNB-75 CNS) [µM]	TGI (RXF 393 renal) [µM]	TGI (T-47D breast) [µM]	TGI (SR leukemia) [µM]	TGI (SK-MEL-2 melanoma) [µM]	TGI (EKVX NSCLC) [µM]	TGI (NCI/ADR-RES ovarian) [µM]	TGI (MDA-MB-231 breast) [µM]
Nc1nc(N)c2nc(CN(C=O)c3ccc(C(=O)O)cc3)cnc2n1	> 100	> 100	> 100	> 100	> 100	> 100	> 100	> 100	> 100	> 45.2	> 100
CC1(C)N=C(C(N)=O)c2[nH]cnc2N1	> 100	> 100	> 100	> 100	> 100	> 100	> 100	> 100	> 100	> 100	> 100
O=C1NC(N2CCCC(CO)C2)=N/C1=C\c1cccs1 (configuration not stated)	> 100	> 100	> 100	> 100	> 100	> 100	> 100	> 100	> 100	> 100	> 100
CNC(=O)[C@H](Cc1ccccc1)NC(=O)N(CCC#N)CCN(C(=O)N[C@@H](Cc1ccccc1)C(=O)OC)c1ccccc1	> 100	> 100	> 100	> 100	> 100	> 100	> 100	> 100	> 100	> 100	> 100
CSc1c(C(C)=O)c(O)n(-c2ccc(C)cc2)c(=O)c1C#N	> 100	> 100	> 100	> 100	> 100	> 100	> 100	> 100	> 100	> 100	> 100
NC(=S)NNCC(=O)CC(O)(C(F)(F)F)C(F)(F)Cl (configuration not stated)	> 100	> 100	> 100	> 100	> 100	> 100	> 100	> 100	> 100	> 100	> 100
CCCOC(=O)c1cc(O)c(O)c(O)c1	> 100	> 100	> 100	> 100	> 100	> 100	> 100	> 100	> 100	> 100	> 100
CC(=O)OC1CCn2c1nc1cc([N+](=O)[O-])c(C)cc12 (configuration not stated)	> 100	> 100	> 100	> 100	> 100	> 100	> 100	> 100	> 100	> 100	> 100
COc1cccc(NC(=O)CC(=O)NN)c1	> 100	> 100	> 100	> 100	> 100	> 100	> 100	> 100	> 100	> 100	> 100
O=c1c(-c2nc3ccccc3c3ccccc3c2=O)nc2ccccc2c2ccccc12	> 100	> 100	> 100	94.9	82.9	> 100	61	> 100	> 100	> 100	> 100
COc1cc(/C=C(\C)[N+](=O)[O-])cc(OC)c1	> 94.7	8.95	28.7	31.8	13.1	16.3	7.04	34.9	33.9	39.8	31
Nc1cccc(-c2cc(=O)c3cc4c(cc3[nH]2)OCO4)c1	> 30.4	> 100	11.5	> 100	> 100	> 100	> 100	5.72	> 100	2.95	8.64
S=c1ncc(-c2cncc(-c3cnc(=S)[nH]c3)n2)c[nH]1	> 100	> 100	> 100	> 100	> 100	> 100	> 100	> 100	> 100	> 100	> 100
NCCCN(CCCCN(CCCN)CCCc1ccccc1)CCCc1ccccc1	38.8	2.91	3.28	5.04	5.64	23.5	7.19	3.25	12.6	43.1	4.39
NC1=Nc2cc(C(F)(F)F)ccc2Sc2nc3ccccc3n21	> 87.5	> 28.6	> 100	71.2	> 100	> 100	> 25.4	> 100	> 100	> 100	> 100
CC(C)c1cc(=O)[nH]c2cc(N)ccc12	> 100	> 100	> 100	> 100	> 100	> 100	> 100	> 100	> 100	> 100	> 100
CN(CCN)[C@H](CSSC[C@@H](c1ccccc1O)N(C)CCN)c1ccccc1O	35.4	32.6	24.5	29	43.7	48.3	11.5	38.9	23.9	23.5	26.5
